Measured values published in patent US11697646B2, “Triazole N-linked carbamoyl cyclohexyl acids as LPA antagonists” (BRISTOL-MYERS SQUIBB COMPANY, priority 2017, dated 2023).

Each molecule was assayed against T1, human LPA1 (Homo sapiens, UniProt Q92633) (assay: LPA1 functional antagonist assay (calcium flux)). Conditions: CHO cells overexpressing human LPA1; calcium flux induced by 10 nM LPA; read-out: hLPA1 IC50.
T1 construct: expressed in transfected cells; host or cells: Chinese hamster ovary (CHO) cells
T1 sequence (Q92633 whole entry): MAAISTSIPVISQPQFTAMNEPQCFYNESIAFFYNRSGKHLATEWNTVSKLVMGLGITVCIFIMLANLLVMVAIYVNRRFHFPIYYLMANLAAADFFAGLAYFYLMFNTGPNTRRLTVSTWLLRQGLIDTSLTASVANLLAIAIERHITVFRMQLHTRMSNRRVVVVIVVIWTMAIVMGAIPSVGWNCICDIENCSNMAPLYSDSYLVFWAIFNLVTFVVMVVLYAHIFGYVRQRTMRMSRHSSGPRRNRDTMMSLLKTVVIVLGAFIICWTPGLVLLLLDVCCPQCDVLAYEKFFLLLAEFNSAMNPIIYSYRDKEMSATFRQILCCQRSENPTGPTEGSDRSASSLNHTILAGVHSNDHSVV
Type: cell-based
Experimental: The effectiveness of compounds of the present invention as LPA1 inhibitors can be determined in an LPA1 functional antagonist assay as follows:
The cells were then equilibrated to room temperature for 30 minutes before the assay. […] IC50 values were determined by fitting data to a 4-parameter logistic equation (GraphPad Prism, San Diego Calif.).

| Compound | IC50 |
| --- | --- |
| CCCCOC(=O)NCc1c(-c2ccc(O[C@H]3CCC[C@H](C(=O)O)C3)c(C)n2)nnn1C [Example 3, (1S,3S)-3-((6-(5-(((butoxycarbonyl)amino)methyl)-1-methyl-1H-1,2,3-triazol-4-yl)-2-methylpyridin-3-yl)oxy)cyclohexane-1-carboxylic acid] | 14 nM |
| CCCCOC(=O)NCc1c(-c2ccc(O[C@H]3CCC[C@H](C(=O)O)C3)cn2)nnn1C [Example 5, (1S,3S)-3-((6-(5-(((butoxycarbonyl)amino)methyl)-1-methyl-1H-1,2,3-triazol-4-yl)pyridin-3-yl)oxy)cyclohexane-1-carboxylic acid] | 96 nM |
| Cn1nnc(-c2ccc(O[C@H]3CCC[C@H](C(=O)O)C3)cn2)c1CNC(=O)OC1CCCC1 [Example 6, (1S,3S)-3-((6-(5-((((cyclopentyloxy)carbonyl)amino)methyl)-1-methyl-1H-1,2,3-triazol-4-yl)pyridin-3-yl)oxy)cyclohexane-1-carboxylic acid] | 84 nM |
| Cc1nc(-c2nnn(C)c2CNC(=O)OCC2CC2)ccc1O[C@H]1CCC[C@H](C(=O)O)C1 [Example 7, (1S,3S)-3-((6-(5-((((cyclopropylmethoxy)carbonyl)amino)methyl)-1-methyl-1H-1,2,3-triazol-4-yl)-2-methylpyridin-3-yl)oxy)cyclohexane-1-carboxylic acid] | 47 nM |
| Cc1nc(-c2nnn(C)c2CNC(=O)OCc2cc(F)cc(F)c2)ccc1O[C@H]1CCC[C@H](C(=O)O)C1 [Example 8, (1S,3S)-3-((6-(5-(((((3,5-difluorobenzyl)oxy)carbonyl)amino)methyl)-1-methyl-1H-1,2,3-triazol-4-yl)-2-methylpyridin-3-yl)oxy)cyclohexane-1-carboxylic acid] | 5 nM |
| Cn1nnc(-c2ccc(O[C@H]3CCC[C@H](C(=O)O)C3)cn2)c1CNC(=O)OCCc1ccccc1 [Example 9, (1S,3S)-3-((6-(1-methyl-5-(((phenethoxycarbonyl)amino)methyl)-1H-1,2,3-triazol-4-yl)pyridin-3-yl)oxy)cyclohexane-1-carboxylic acid] | 672 nM |
| C[C@@H](OC(=O)NCc1c(-c2ccc(O[C@H]3CCC[C@H](C(=O)O)C3)cn2)nnn1C)c1ccccc1 [Example 10, (1S,3S)-3-((6-(1-methyl-5-(((((R)-1-phenylethoxy)carbonyl)amino)methyl)-1H-1,2,3-triazol-4-yl)pyridin-3-yl)oxy)cyclohexane-1-carboxylic acid] | 104 nM |
| Cc1nc(-c2nnn(C)c2CNC(=O)OCc2cccc(F)c2)ccc1O[C@H]1CCC[C@H](C(=O)O)C1 [Example 11, (1S,3S)-3-((6-(5-(((((3-fluorobenzyl)oxy)carbonyl)amino)methyl)-1-methyl-1H-1,2,3-triazol-4-yl)-2-methylpyridin-3-yl)oxy)cyclohexane-1-carboxylic acid] | 6 nM |
| Cn1nnc(-c2ccc(O[C@H]3CCC[C@H](C(=O)O)C3)cn2)c1CNC(=O)OCc1cccc(F)c1 [Example 12, (1S,3S)-3-((6-(5-(((((3-fluorobenzyl)oxy)carbonyl)amino)methyl)-1-methyl-1H-1,2,3-triazol-4-yl)pyridin-3-yl)oxy)cyclohexane-1-carboxylic acid] | 23 nM |
| CCCCCCOC(=O)NCc1c(-c2ccc(O[C@H]3CCC[C@H](C(=O)O)C3)cn2)nnn1C [Example 13, (1S,3S)-3-((6-(5-((((hexyloxy)carbonyl)amino)methyl)-1-methyl-1H-1,2,3-triazol-4-yl)pyridin-3-yl)oxy)cyclohexane-1-carboxylic acid] | 428 nM |
| CCCCOC(=O)N(C)Cc1c(-c2ccc(O[C@H]3CCC[C@H](C(=O)O)C3)cn2)nnn1C [Example 14, (1S,3S)-3-((6-(5-(((butoxycarbonyl)(methyl)amino)methyl)-1-methyl-1H-1,2,3-triazol-4-yl)pyridin-3-yl)oxy)cyclohexane-1-carboxylic acid] | 1020 nM |
| CCCCCOC(=O)N(C)Cc1c(-c2ccc(O[C@H]3CCC[C@H](C(=O)O)C3)cn2)nnn1C [Example 15, (1S,3S)-3-((6-(1-methyl-5-((methyl((pentyloxy)carbonyl)amino)methyl)-1H-1,2,3-triazol-4-yl)pyridin-3-yl)oxy)cyclohexane-1-carboxylic acid] | 130 nM |
| Cc1nc(-c2nnn(C)c2CNC(=O)OCCc2ccccc2)ccc1O[C@H]1CCC[C@H](C(=O)O)C1 [Example 16, (1S,3S)-3-((2-methyl-6-(1-methyl-5-(((phenethoxycarbonyl)amino)methyl)-1H-1,2,3-triazol-4-yl)pyridin-3-yl)oxy)cyclohexane-1-carboxylic acid] | 32 nM |
| Cc1nc(-c2nnn(C)c2CNC(=O)OCc2cc(F)ccc2F)ccc1O[C@H]1CCC[C@H](C(=O)O)C1 [Example 17, (1S,3S)-3-((6-(5-(((((2,5-difluorobenzyl)oxy)carbonyl)amino)methyl)-1-methyl-1H-1,2,3-triazol-4-yl)-2-methylpyridin-3-yl)oxy)cyclohexane-1-carboxylic acid] | 7 nM |
| Cc1nc(-c2nnn(C)c2CNC(=O)O[C@H](C)c2ccccc2)ccc1O[C@H]1CCC[C@H](C(=O)O)C1 [Example 18, (1S,3S)-3-((2-methyl-6-(1-methyl-5-(((((R)-1-phenylethoxy)carbonyl)amino)methyl)-1H-1,2,3-triazol-4-yl)pyridin-3-yl)oxy)cyclohexane-1-carboxylic acid] | 12 nM |
| Cc1cccc(COC(=O)NCc2c(-c3ccc(O[C@H]4CCC[C@H](C(=O)O)C4)c(C)n3)nnn2C)c1 [Example 19, (1S,3S)-3-((2-methyl-6-(1-methyl-5-(((((3-methylbenzyl)oxy)carbonyl)amino)methyl)-1H-1,2,3-triazol-4-yl)pyridin-3-yl)oxy)cyclohexane-1-carboxylic acid] | 4 nM |
| CCCCCCOC(=O)NCc1c(-c2ccc(O[C@H]3CCC[C@H](C(=O)O)C3)c(C)n2)nnn1C [Example 20, (1S,3S)-3-((6-(5-((((hexyloxy)carbonyl)amino)methyl)-1-methyl-1H-1,2,3-triazol-4-yl)-2-methyl-pyridin-3-yl)oxy)cyclohexane-1-carboxylic acid] | 3 nM |
| COCCOC(=O)NCc1c(-c2ccc(O[C@H]3CCC[C@H](C(=O)O)C3)c(C)n2)nnn1C [Example 21, (1S,3S)-3-((6-(5-((((2-methoxyethoxy)carbonyl)amino)methyl)-1-methyl-1H-1,2,3-triazol-4-yl)-2-methylpyridin-3-yl)oxy)cyclohexane-1-carboxylic acid] | 1620 nM |
| Cc1nc(-c2nnn(C)c2CNC(=O)OCC(C)(C)C)ccc1O[C@H]1CCC[C@H](C(=O)O)C1 [Example 22, (1S,3S)-3-((2-methyl-6-(1-methyl-5-((((neopentyloxy)carbonyl)amino)methyl)-1H-1,2,3-triazol-4-yl)pyridin-3-yl)oxy)cyclohexane-1-carboxylic acid] | 35 nM |
| CCCCCOC(=O)NCc1c(-c2ccc(O[C@H]3CCC[C@H](C(=O)O)C3)c(C)n2)nnn1C [Example 23] | 3 nM |
| CCCOC(=O)NCc1c(-c2ccc(O[C@H]3CCC[C@H](C(=O)O)C3)c(C)n2)nnn1C [Example 24, (1S,3S)-3-((2-methyl-6-(1-methyl-5-(((propoxycarbonyl)amino)methyl)-1H-1,2,3-triazol-4-yl)pyridin-3-yl)oxy)cyclohexane-1-carboxylic acid] | 160 nM |
| Cc1nc(-c2nnn(C)c2CNC(=O)OCC(C)C)ccc1O[C@H]1CCC[C@H](C(=O)O)C1 [Example 25, (1S,3S)-3-((6-(5-(((isobutoxycarbonyl)amino)methyl)-1-methyl-1H-1,2,3-triazol-4-yl)-2-methyl-pyridin-3-yl)oxy)cyclohexane-1-carboxylic acid] | 51 nM |
| Cn1nnc(-c2ccc(O[C@H]3CCC[C@H](C(=O)O)C3)cn2)c1CNC(=O)OCC(C)(C)C [Example 26, (1S,3S)-3-((6-(1-methyl-5-((((neopentyloxy)carbonyl)amino)methyl)-1H-1,2,3-triazol-4-yl)pyridin-3-yl)oxy)cyclohexane-1-carboxylic acid] | 44 nM |
| CCCCCOC(=O)NCc1c(-c2ccc(O[C@H]3CCC[C@H](C(=O)O)C3)cn2)nnn1C [Example 27, (1S,3S)-3-((6-(1-methyl-5-((((pentyloxy)carbonyl)amino)methyl)-1H-1,2,3-triazol-4-yl)pyridin-3-yl)oxy)cyclohexane-1-carboxylic acid] | 16 nM |
| Cc1nc(-c2nnn(C)c2CNC(=O)OC2CCCC2)ccc1O[C@H]1CCC[C@H](C(=O)O)C1 [Example 28] | 18 nM |
| CC(C)COC(=O)NCc1c(-c2ccc(O[C@H]3CCC[C@H](C(=O)O)C3)cn2)nnn1C [Example 29, (1S,3S)-3-((6-(5-(((isobutoxycarbonyl)amino)methyl)-1-methyl-1H-1,2,3-triazol-4-yl)pyridin-3-yl)oxy)cyclohexane-1-carboxylic acid] | 179 nM |
| Cc1nc(-c2nnn(C)c2CNC(=O)OC(C)(C)C)ccc1O[C@H]1CCC[C@H](C(=O)O)C1 [Example 30, (1S,3S)-3-((6-(5-(((tert-butoxycarbonyl)amino)methyl)-1-methyl-1H-1,2,3-triazol-4-yl)-2-methylpyridin-3-yl)oxy)cyclohexane-1-carboxylic acid] | 120 nM |
| Cc1nc(-c2nnn(C)c2CNC(=O)OCC2CCC2)ccc1O[C@H]1CCC[C@H](C(=O)O)C1 [Example 33, (1S,3S)-3-((6-(5-((((cyclobutylmethoxy)carbonyl)amino)methyl)-1-methyl-1H-1,2,3-triazol-4-yl)-2-methylpyridin-3-yl)oxy)cyclohexane-1-carboxylic acid] | 11 nM |
| Cc1nc(-c2nnn(C)c2CN(C)C(=O)OCc2ccccc2)ccc1O[C@H]1CCC[C@H](C(=O)O)C1 [Example 35, (1S,3S)-3-((6-(5-((((benzyloxy)carbonyl)(methyl)amino)methyl)-1-methyl-1H-1,2,3-triazol-4-yl)-2-methylpyridin-3-yl)oxy)cyclohexanecarboxylic acid] | 56 nM |
